{"source": "patent US10822376B2", "about": "“Biologically active peptides” (Baxalta Incorporated, priority 2008, dated 2020)", "key": {"[1]": {"test_system": "Factor VII/VIIa deficient human plasma", "assay": "DDPTGA (reagent B) in FVII depleted plasma", "details": "compounds at 50 μM and 80, 90 or 100 μM", "method": "(§5) The Defined Dual-Pathway Thrombin Generation Assay is performed as described below, using a commercial test kit (Technothrombin TGA, Technoclone GmbH, Vienna, Austria). […] USA) are incubated four minutes at 37° C. Preferably, Reagent C high is used. Thrombin generation is started by the addition of 40 μl of one of several types of human plasma (37° C.). […] By deviating the original fluorescence data the amount of generated thrombin is calculated from a standard curve constructed using a concentration range of thrombin.\n(§6) The in vitro thrombin generation assay based on the cleavage of Z-GGR-AMC to release the fluorophore AMC, described in the specific description, i.e. the Defined Dual-Pathway Thrombin Generation Assay was used to characterise the effect of the compounds in several depleted human plasmas. […] 10 μl peptide dilution, 40 μl TGA substrate and 40 μl plasma were used as described in the specific description.\n(§7) The plasmas used in the experiments were fresh frozen and were deficient in Factor V, Factor VII/VIIa, Factor VIII, Factor X or Factor XI (George King Bio-Medical, Inc.). Residual coagulation factor levels of deficient plasmas were specified as less than 1%.\n(§8) For each depleted plasma used in the experiments, compounds were tested at two concentrations, namely 50 μM and 80, 90 or 100 μM. A negative control was used, in which no test compound was included."}, "[2]": {"test_system": "Factor V deficient human plasma", "assay": "DDPTGA (reagent B) in FV depleted plasma", "details": "compounds at 50 μM and 80, 90 or 100 μM", "method": "as §5, §6, §7, §8"}, "[3]": {"test_system": "FVIII inhibited plasma", "assay": "Defined Dual-Pathway Thrombin Generation Assay (DDPTGA, reagent C high), FVIII inhibited plasma", "type": "biochemical, human", "details": "for Peak IIa FEIBA EU / Peak IIa FVIIa EU / Peak Time FEIBA EU / Peak Time FVIIa EU: FVIII inhibited plasma", "text": "(§1) The intrinsic pathway of thrombin generation may be assayed in a thrombin generation assay by including FXIa and phospholipids. In such an assay, which is similar to an activated partial thromboplastin time (aPTT) test, thrombin generation is solely directed through the intrinsic pathway, and is FVIII dependent. A suitable assay is the Defined Intrinsic Thrombin Generation Assay described below. Alternatively, by employing low concentrations of TF and phospholipids instead of FXIa and phospholipids, thrombin is generated by both the extrinsic (tissue factor) and the intrinsic pathways. This form of the thrombin generation assay is the more physiologic one, as both thrombin generation pathways are involved; it is partially FVIII dependent. A suitable assay is the Defined Dual-Pathway Thrombin Generation Assay.\n(§2) Preferably, Reagent C high is used.\n(§3) Tissue factor dependency of peak thrombin generation and thrombin peak time was characterised in a composition containing a fixed concentration of phospholipid (namely 3.2 μM). Phospholipid dependency was characterised in a composition containing a fixed concentration of tissue factor (namely 7.2 μM). Peak time (time to peak thrombin generation) was dependent on the concentration of phospholipid or tissue factor. The final version of this assay is as described in the specific description, in which 10 μl reagent C high containing (32 μM phospholipid and 71.6 μM tissue factor) is used in a total volume of 100 μl.\n(§4) Further studies were conducted using 3.2 μM phospholipid and 7.2 μM tissue factor in FVIII deficient or inhibited plasma, to characterise the effect on peak thrombin generation and thrombin peak time of various coagulation factor preparations. These studies provided a basis from which to compare the efficacy of the compounds in the assay. Briefly, rFVIII (Recombinate® FVIII from Baxter) was tested at 0, 5, 10, 20, 40 and 80 mU/ml in FVIII deficient plasma. FEIBA was tested at 0, 8, 16, 31, 63 and 125 mU/ml in FVIII inhibited plasma. FVIIa was tested at 0, 0.1, 0.4, 1.6, 6.3 and 25 nM in FVIII inhibited plasma. […] Peak thrombin increased and both the lag time and the thrombin peak time decrease."}, "[4]": {"test_system": "Factor VIII deficient human plasma", "assay": "DDPTGA (reagent B) in FVIII depleted plasma", "type": "biochemical", "details": "compounds at 50 μM and 80, 90 or 100 μM", "text": "as §2"}, "[5]": {"test_system": "Factor X deficient human plasma", "assay": "DDPTGA (reagent B) in FX depleted plasma", "details": "compounds at 50 μM and 80, 90 or 100 μM", "method": "as §5, §6, §7, §8"}, "[6]": {"test_system": "FVIII deficient plasma", "assay": "Defined Dual-Pathway Thrombin Generation Assay (DDPTGA, reagent C high), FVIII deficient plasma", "type": "biochemical, human", "details": "FVIII deficient plasma", "text": "as §1, §2, §3, §4"}, "[7]": {"test_system": "Factor XI deficient human plasma", "assay": "DDPTGA (reagent B) in FXI depleted plasma", "details": "compounds at 50 μM and 80, 90 or 100 μM", "method": "as §5, §6, §7, §8"}, "[8]": {"test_system": "human FVIII inhibited plasma", "assay": "Defined Intrinsic Thrombin Generation Assay (DITGA, triggered by FXIa and phospholipids)", "type": "biochemical", "text": "as §1\nThe Defined Intrinsic Thrombin Generation Assay is performed as follows. FVIII activity of human plasma is inhibited by incubating (2 hours, 37° C.) 40 μl of human normal plasma with 10 μl heat inactivated anti-human FVIII plasma raised in goat (600 BU/ml, 6 hours incubated at 56° C.). […] Instead of FVIII-inhibited plasma, FVIII inhibitor patient plasma or several depleted plasmas can be used. The micro-plate is immediately put into a GENios Plus (Tecan) or Safire 2 (Tecan) fluorescence reader and the fluorescence signal (ex 340 nm/em 440 nm) is followed kinetically by reading the plate every 21 seconds.\nFor calculation of activity equivalent units experiments are performed with dilutions of Factor Eight Inhibitor Bypassing Agent (FEIBA, Baxter AG), Immunate (human FVIII, purified plasma derived) reference standard (Baxter AG) or Recombinate standard (human FVIII, purified recombinant, Baxter AG). A linear fit of the logarithm of FEIBA (FVIII) concentration plotted against thrombin generation time at peak thrombin results in a standard curve. With this curve FEIBA (FVIII) equivalent activity is calculated for a defined peptide concentration. […] Thus, where a concentration of 100 μM is given, the actual concentration in the final assay volume in 40 μM.\nCompounds were screened using the “Defined intrinsic thrombin generation assay” in which thrombin generation was quantified in vitro in FVIII-inhibited human plasma in the presence of Factor XIa and phospholipid vesicles. Further compounds were screened in the above assay, and in the “Defined dual-pathway thrombin generation assay” using tissue factor and phospholipids instead of Factor XIa and phospholipids, as described in the specific description.\nVarious concentrations of each peptide were tested in the defined intrinsic thrombin generation assay using human FVIII inhibited plasma."}, "[9]": {"test_system": "FVIII-inhibited human normal plasma", "assay": "Defined Fibrin Deposition Assay (clotting time)", "type": "biochemical", "description": "Another suitable assay to determine procoagulant activity, and particularly FVIII equivalent activity or FVIII inhibitor bypassing activity, is the Defined Fibrin Deposition Assay as described below. […] This assay is particularly useful for determining coagulation FVIII activity because it is conducted in the presence of FVIII-depleted or inhibited plasma.\nThe Defined Fibrin Deposition Assay is performed as follows. FVIII activity of human citrated plasma (Baxter AG) is first inhibited by incubating (2 hours, 37° C.) 100 μl of human normal plasma with 25 μl heat inactivated anti-human FVIII plasma (300 BU/ml, 6 hours incubated at 56° C.) raised in goat. For each sample to be tested, 125 μl of this FVIII-inhibited human normal plasma is transferred to a pre-warmed cuvette and a 75 μl dilution of a test compound or FEIBA reference standard (Baxter AG) is added. The dilutions of test compound or FEIBA reference standard contain 50 mM imidazole, 100 mM NaCl and 10 mg/ml human serum albumin (Sigma) pH 7.4. As a trigger and for providing procoagulant surfaces 100 μl of a mix of human factor XIa (3.13 nM, Enzyme Research Laboratories) and phospholipid (PL) vesicles (Phosphatidylcholine/Phosphatidylserine 60%/40%, 30 μM; Avanti Polar Lipids) in 50 mM Imidazole, 100 mM NaCl, 10 mg/ml human serum albumin (Sigma) pH 7.4 is included. After incubating for three minutes at 37° C. the coagulation reaction is started by adding 100 μl of 25 mM CaCl2. Clot formation is monitored by a coagulometer (KC10A, Amelung, Germany). In brief, each cuvette rotates slowly above the magnetic detection device and contains a small magnetic metallic ball. Whilst the plasma components remain in solution, the ball sits at the bottom of the cuvette. Over time, a clot begins to form, such that the ball starts to rotate with the developing clot in the rotating cuvette. The “clotting time” is recorded and is defined as the time from addition of the CaCl2) to the time that the developing clot begins to rotate the metallic ball. A standard curve for FEIBA reference standard dilutions is calculated by linear regression of logarithmic FEIBA concentrations (x-axis) against the clotting time (y-axis). Based on the clotting time of each compound concentration FEIBA equivalent activities are calculated according to this standard curve.\nThus, where a concentration of 100 μM is given, the actual concentration in the final assay volume in 25 μM.\nVarious peptides were tested for the ability to stimulate fibrin deposition in the Defined Fibrin Deposition Assay as described in the specific description."}, "[10]": {"test_system": "FIX−/− mice", "assay": "Tail clip assay in FIX−/− mice (blood loss, survival)", "type": "in vivo, mouse", "details": "for Survival (%) 2 hours / Survival (%) 4 hours / Survival (%) 24 hours / Survival (%) 48 hours: FIX−/− mice, tail clip"}}, "data": [{"substance": "Ac-WDLYFEIVW-ttds-E [Peptide A07]", "values": [{"measurement": "Stimulation of thrombin generation", "setting": "[1]", "value": "+"}, {"measurement": "Stimulation of thrombin generation", "setting": "[2]", "value": "−"}, {"measurement": "Peak IIa FEIBA EU", "setting": "[3]; peptide 50 μM", "value": "BLS (BLS = below lowest standard.)"}, {"measurement": "Peak IIa FVIIa EU", "setting": "[3]; peptide 50 μM", "value": "BLS (BLS = below lowest standard.)"}, {"measurement": "Peak Time FEIBA EU", "setting": "[3]; peptide 50 μM", "value": "BLS (BLS = below lowest standard.)"}, {"measurement": "Peak Time FVIIa EU", "setting": "[3]; peptide 50 μM", "value": "BLS (BLS = below lowest standard.)"}, {"measurement": "Peak IIa FEIBA EU", "setting": "[3]; peptide 100 μM", "value": "BLS (BLS = below lowest standard.)"}, {"measurement": "Peak IIa FVIIa EU", "setting": "[3]; peptide 100 μM", "value": 0.1, "unit": "nM"}, {"measurement": "Peak Time FEIBA EU", "setting": "[3]; peptide 100 μM", "value": "BLS (BLS = below lowest standard.)"}, {"measurement": "Peak Time FVIIa EU", "setting": "[3]; peptide 100 μM", "value": "BLS (BLS = below lowest standard.)"}, {"measurement": "Activity in the Defined Dual-Pathway Thrombin Generation Assay", "setting": "[3]; summary, FVIII inhibited or deficient plasma", "value": "possess activity"}, {"measurement": "Stimulation of thrombin generation", "setting": "[4]", "value": "+"}, {"measurement": "Stimulation of thrombin generation", "setting": "[5]", "value": "+"}, {"measurement": "Peak IIa FVIII EU", "setting": "[6]; peptide 50 μM", "value": "BLS (BLS = below lowest standard.)"}, {"measurement": "Peak Time FVIII EU", "setting": "[6]; peptide 50 μM", "value": "BLS (BLS = below lowest standard.)"}, {"measurement": "Peak IIa FVIII EU", "setting": "[6]; peptide 100 μM", "value": "BLS (BLS = below lowest standard.)"}, {"measurement": "Peak Time FVIII EU", "setting": "[6]; peptide 100 μM", "value": "BLS (BLS = below lowest standard.)"}, {"measurement": "Stimulation of thrombin generation", "setting": "[7]", "value": "+"}, {"measurement": "Thrombin peak time given as FEIBA equivalent activity", "setting": "[8]; peptide 6.25 μM", "value": 415, "unit": "mU/ml"}, {"measurement": "Thrombin peak time given as FEIBA equivalent activity", "setting": "[8]; peptide 12.5 μM", "value": 585, "unit": "mU/ml"}, {"measurement": "Thrombin peak time given as FEIBA equivalent activity", "setting": "[8]; peptide 25 μM", "value": 750, "unit": "mU/ml"}, {"measurement": "Thrombin peak time given as FEIBA equivalent activity", "setting": "[8]; peptide 50 μM", "value": 965, "unit": "mU/ml"}, {"measurement": "Thrombin peak time given as FEIBA equivalent activity", "setting": "[8]; peptide 100 μM", "value": 1129, "unit": "mU/ml"}, {"measurement": "Activity in the Defined Intrinsic Thrombin Generation Assay", "setting": "[8]; summary", "value": "possess activity"}, {"measurement": "FEIBA EU (from clotting time)", "setting": "[9]; compound 12.5 μM", "value": 268, "unit": "mU/ml"}, {"measurement": "FEIBA EU (from clotting time)", "setting": "[9]; compound 25 μM", "value": 246, "unit": "mU/ml"}, {"measurement": "FEIBA EU (from clotting time)", "setting": "[9]; compound 50 μM", "value": 199, "unit": "mU/ml"}, {"measurement": "Activity in the Defined Fibrin Deposition Assay", "setting": "[9]; summary", "value": "possess activity"}]}, {"substance": "Immunine: purified plasma FIX preparation (Baxter AG. Austria)", "values": [{"measurement": "Blood loss over the 62 minutes after tail clip", "setting": "[10]; 50, 100 or 200 U/kg i.v.", "value": "dose-dependent reduction"}, {"measurement": "Bleeding parameters and survival", "setting": "[10]; 50-200 U/kg", "value": "dose dependently improves"}, {"measurement": "Survival (%) 2 hours", "setting": "[10]; 50 U/kg i.v.", "value": 94, "unit": "%"}, {"measurement": "Survival (%) 4 hours", "setting": "[10]; 50 U/kg i.v.", "value": 69, "unit": "%"}, {"measurement": "Survival (%) 24 hours", "setting": "[10]; 50 U/kg i.v.", "value": 63, "unit": "%"}, {"measurement": "Survival (%) 48 hours", "setting": "[10]; 50 U/kg i.v.", "value": 63, "unit": "%"}, {"measurement": "Survival (%) 2 hours", "setting": "[10]; 100 U/kg i.v.", "value": 100, "unit": "%"}, {"measurement": "Survival (%) 4 hours", "setting": "[10]; 100 U/kg i.v.", "value": 100, "unit": "%"}, {"measurement": "Survival (%) 24 hours", "setting": "[10]; 100 U/kg i.v.", "value": 94, "unit": "%"}, {"measurement": "Survival (%) 48 hours", "setting": "[10]; 100 U/kg i.v.", "value": 94, "unit": "%"}, {"measurement": "Survival (%) 2 hours", "setting": "[10]; 200 U/kg i.v.", "value": 100, "unit": "%"}, {"measurement": "Survival (%) 4 hours", "setting": "[10]; 200 U/kg i.v.", "value": 100, "unit": "%"}, {"measurement": "Survival (%) 24 hours", "setting": "[10]; 200 U/kg i.v.", "value": 100, "unit": "%"}, {"measurement": "Survival (%) 48 hours", "setting": "[10]; 200 U/kg i.v.", "value": 100, "unit": "%"}]}]}
